In patent publication US11548868B2, “Heterocyclic compounds, compositions comprising heterocyclic compound, and methods of use thereof” (JS INNOPHARM (SHANGHAI) LTD, priority 2017, dated 2023):

Columns and labels:
[1] = molecular target: T1, IDO1 in Hela cancer cells (Homo sapiens, UniProt P14902); experiment: IDO1 Cellular Assay (kynurenine production in IFN-γ stimulated Hela cancer cells); format: cell-based; conditions: human IFN-γ 50 ng/mL, 48 hours incubation, kynurenine at 490 nm
T1 construct: endogenous in cells; host or cells: Hela cancer cells stimulated with human IFN-γ
T1 sequence (P14902 whole entry): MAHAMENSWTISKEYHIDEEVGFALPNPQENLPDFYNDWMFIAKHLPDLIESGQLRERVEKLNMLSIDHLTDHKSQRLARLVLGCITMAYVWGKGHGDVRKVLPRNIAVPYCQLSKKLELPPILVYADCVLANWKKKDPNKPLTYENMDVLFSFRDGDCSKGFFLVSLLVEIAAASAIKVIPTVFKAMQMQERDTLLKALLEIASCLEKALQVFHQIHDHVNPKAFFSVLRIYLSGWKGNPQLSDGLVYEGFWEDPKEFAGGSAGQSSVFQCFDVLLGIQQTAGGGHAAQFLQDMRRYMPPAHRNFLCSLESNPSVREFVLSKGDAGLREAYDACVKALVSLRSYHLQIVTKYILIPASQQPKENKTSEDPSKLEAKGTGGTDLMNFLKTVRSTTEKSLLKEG
Method: Hela cancer cells (5×10^3 per well) with 85 μL DMEM medium containing 10% FBS were seeded in a 96-well plate and incubated at 95% humidity and 5% CO2 at 37° C. for 24 hours. human IFN-γ (10 μL, 50 ng/mL final concentration) and 5 μL serial dilutions of the test compounds were added into each well. The test compounds were dissolved in DMSO, and successively diluted with pH7.5 buffer (with final DMSO concentration of 0.25%) resulting in final concentrations of the test compounds ranging from 0 to 25 μM (0, 2.5, 7.5, 25, 75, 250, 750, 2500, 7500, & 25000 nM). After 48 hours of incubation, 70 uL of the supernatant per well was transferred to a new 96 well plate. Trichloroacetic acid (6.1 N, 8 μL) was mixed into each well and incubated at 50° C. for 30 min to hydrolyze N-formylkynurenine produced by IDO to kynurenine. The reaction mixture was then centrifuged for 10 min at 2500 RPM to remove sediments. 50 μL of the supernatant per well was transferred to another 96 well plate and mixed with 50 uL of 2% (w/v) p-dimethylaminobenzaldehyde in acetic acid. The yellow color derived from kynurenine was measured at 490 nm using a microplate reader. Percent inhibition of the test compounds was determined by measuring the decrease in kynurenine as compared to the control of DMSO vehicle, which was calculated by formula of (WC-WT)/WC, where WC is the mean absorbance of the control well minus blank well; WT is the mean absorbance of the test well minus the blank well. Data was analyzed by GraphPad Prism 5 and the IC50 values were obtained by non-linear regression.
(§1) The IC50 values of for Compounds disclosed are listed in Table 2, A′: ≤0.5 μM; B′: >0.5 μM and ≤1 μM; C′: >1.0 μM and ≤5 uM; and D′: >5 μM.

[2] = molecular target: T2, TDO2 in A172 cancer cells (Homo sapiens, UniProt P48775); experiment: TDO2 Cellular Assay (kynurenine production in A172 cancer cells); format: cell-based; conditions: L-Trp 1 mM, 24 hours incubation, kynurenine at 490 nm
T2 construct: endogenous in cells; host or cells: A172 cancer cells
T2 sequence (P48775 whole entry): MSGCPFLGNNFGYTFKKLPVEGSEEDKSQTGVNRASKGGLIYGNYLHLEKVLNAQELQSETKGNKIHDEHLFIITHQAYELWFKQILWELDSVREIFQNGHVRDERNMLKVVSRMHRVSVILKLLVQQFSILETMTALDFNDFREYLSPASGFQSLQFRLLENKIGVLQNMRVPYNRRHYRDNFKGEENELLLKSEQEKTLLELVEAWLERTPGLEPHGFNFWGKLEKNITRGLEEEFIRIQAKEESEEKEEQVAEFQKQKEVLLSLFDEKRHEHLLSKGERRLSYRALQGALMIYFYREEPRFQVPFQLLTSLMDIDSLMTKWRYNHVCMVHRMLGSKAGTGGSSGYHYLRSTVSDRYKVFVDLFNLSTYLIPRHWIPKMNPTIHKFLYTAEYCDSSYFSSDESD
Method: A172 cancer cells (3×10^4 per well) in 85 μL DMEM medium containing 10% FBS were seeded in a 96-well plate and incubated at 95% humidity and 5% CO2 at 37° C. for overnight. On the next day, L-Trp solution (10 μL, 1 mM final concentration) and serial dilutions of the test compounds and DMEM medium resulting in a total final volume of 100 μL each well. The test compounds were dissolved in DMSO and successively diluted with pH7.5 butter (with final DMSO concentration of 0.25%) resulting in final concentrations of the test compounds ranging from 0 to 25 μM (0, 2.5, 7.5, 25, 75, 250, 750, 2500, 7500, & 25000 nM). After 24 hours of incubation, 70 uL of the supernatant per well was transferred to a new 96 well plate. 8 μL of trichloroacetic acid (6.1 N) was mixed into each well and incubated at 50° C. for 30 min to hydrolyze N-formylkynurenine to kynurenine. The reaction mixture was then centrifuged for 10 min at 2500 RPM to remove sediments. 50 μL of the supernatant per well was transferred to another 96 well plate and mixed with 50 μL of 2% (w/v) p-dimethylaminobenzaldehyde in acetic acid. The yellow color derived from kynurenine was measured at 490 nm using a microplate reader. Percent inhibition of the test compounds was determined by measuring the decrease in kynurenine as compared to the control of DMSO vehicle, which was calculated by formula of (WC−WT)/WC, where WC is the mean absorbance of the control well minus blank well; WT is the mean absorbance of the test well minus the blank well. Data was analyzed by GraphPad Prism 5 and the IC50 values were obtained by non-linear regression.
as §1

For `CS(=O)(=O)N[C@H]1[C@@H]2C[C@@](O)(c3cc(Cl)cc4[nH]ncc34)C[C@@H]21` [Example 63, N-((1R,3r,5S,6r)-3-(6-chloro-1H-indazol-4-yl)-3-hydroxybicyclo[3.1.0]hexan-6-yl)methanesulfonamide], the IC50 [1] was 500 to 1000 nM and the IC50 [2] was at most 500 nM.

For `CC(=O)Nc1cccc(C(=O)N[C@H]2[C@@H]3C[C@@](O)(c4cc(Cl)cc5[nH]ncc45)C[C@@H]32)c1` [Example 151, 3-acetamido-N-((1R,3r,5S,6r)-3-(6-chloro-1H-indazol-4-yl)-3-hydroxybicyclo[3.1.0]hexan-6-yl)benzamide], the IC50 [1] was 1000 to 5000 nM and the IC50 [2] was at most 500 nM.

In the case of `C#Cc1cccc(C(=O)N[C@H]2[C@@H]3C[C@@](O)(c4cc(Cl)cc5[nH]ncc45)C[C@@H]32)c1` [Example 174, N-((1R,3r,5S,6r)-3-(6-chloro-1H-indazol-4-yl)-3-hydroxybicyclo[3.1.0]hexan-6-yl)-3-ethynylbenzamide], the IC50 [1] is reported as at most 500 nM and the IC50 [2] is reported as at most 500 nM.

With `O=S(=O)(N[C@H]1[C@@H]2C[C@@](O)(c3cc(Cl)cc4[nH]ncc34)C[C@@H]21)c1ccccc1` [Example 95, N-((1R,3r,5S,6r)-3-(6-chloro-1H-indazol-4-yl)-3-hydroxybicyclo[3.1.0]hexan-6-yl)benzenesulfonamide] the IC50 [1] was over 5000 nM and the IC50 [2] was at most 500 nM.

Work on `O=C(N[C@H]1[C@@H]2C[C@@](O)(c3cc(Cl)cc4cn[nH]c34)C[C@@H]21)c1ccccc1` [Example 129, N-((1R,3r,5S,6r)-3-(5-chloro-1H-indazol-7-yl)-3-hydroxybicyclo[3.1.0]hexan-6-yl)benzamide] yielded an IC50 [1] of 1000 to 5000 nM and an IC50 [2] of 1000 to 5000 nM.

Work on `O=C(Nc1cccc(Cl)c1)N[C@H]1[C@@H]2C[C@@](O)(c3cc(Cl)cc4[nH]ncc34)C[C@@H]21` [Example 122, 1-((1R,3r,5S,6r)-3-(6-chloro-1H-indazol-4-yl)-3-hydroxybicyclo[3.1.0]hexan-6-yl)-3-(3-chlorophenyl)urea] yielded an IC50 [1] of 1000 to 5000 nM and an IC50 [2] of 1000 to 5000 nM.

`O=S(=O)(N[C@H]1[C@@H]2C[C@@](O)(c3cc(Cl)cc4cn[nH]c34)C[C@@H]21)c1ccccc1` [Example 131, N-((1R,3r,5S,6r)-3-(5-chloro-1H-indazol-7-yl)-3-hydroxybicyclo[3.1.0]hexan-6-yl)benzenesulfonamide] was tested, and the IC50 [1] was over 5000 nM and the IC50 [2] was 1000 to 5000 nM.

Work on `CC(=O)N[C@H]1[C@@H]2C[C@@](O)(c3cc(Cl)cc4cn[nH]c34)C[C@@H]21` [Example 108, N-((1R,3r,5S,6r)-3-(5-chloro-1H-indazol-7-yl)-3-hydroxybicyclo[3.1.0]hexan-6-yl)acetamide] yielded an IC50 [1] of over 5000 nM and an IC50 [2] of at most 500 nM.

`CC(=O)N1C[C@@H]2CN(c3cc(C(F)(F)F)cn4cncc34)C[C@@H]2C1(C)C` (racemic) [Example 45, Racemic-1-((3aS,6aR)-1,1-dimethyl-5-(6-(trifluoromethyl)imidazo[1,5-a]pyridin-8-yl)hexahydropyrrolo[3,4-c]pyrrol-2(1H)-yl)ethanone] was tested, and the IC50 [1] was over 5000 nM and the IC50 [2] was 1000 to 5000 nM.

`O=C(N[C@H]1[C@@H]2C[C@@](O)(c3cc(Cl)cc4[nH]ncc34)C[C@@H]21)c1ccnc(C(F)(F)F)c1` [Example 156, N-((1R,3r,5S,6r)-3-(6-chloro-1H-indazol-4-yl)-3-hydroxybicyclo[3.1.0]hexan-6-yl)-2-(trifluoromethyl)isonicotinamide] showed an IC50 [1] of at most 500 nM and an IC50 [2] of at most 500 nM.

Molecule `CNC(=O)N[C@H]1[C@@H]2C[C@@](O)(c3cc(Cl)cc4cn[nH]c34)C[C@@H]21` [Example 133, 1-((1R,3r,5S,6r)-3-(5-chloro-1H-indazol-7-yl)-3-hydroxybicyclo[3.1.0]hexan-6-yl)-3-methylurea] has an IC50 [1] of over 5000 nM and an IC50 [2] of 1000 to 5000 nM.

For `O=C(N[C@H]1[C@@H]2C[C@@](O)(c3cc(Cl)cc4[nH]ncc34)C[C@@H]21)c1cccc(C(F)(F)F)c1` [Example 142, N-((1R,3r,5S,6r)-3-(6-chloro-1H-indazol-4-yl)-3-hydroxybicyclo[3.1.0]hexan-6-yl)-3-(trifluoromethyl)benzamide], the IC50 [1] was at most 500 nM and the IC50 [2] was at most 500 nM.

In the case of `O=S(=O)(c1ccccc1)N1C[C@@H]2C[C@@](O)(c3cc(Cl)cc4[nH]ncc34)C[C@@H]2C1` [Example 35, (3aR,5r,6aS)-5-(6-chloro-1H-indazol-4-yl)-2-(phenylsulfonyl)octahydrocyclopenta[c]pyrrol-5-ol], the IC50 [1] is reported as over 5000 nM and the IC50 [2] is reported as at most 500 nM.

`O=S(=O)(N[C@H]1[C@@H]2C[C@@](O)(c3cc(Cl)cc4cn[nH]c34)C[C@@H]21)C1CC1` [Example 110, N-((1R,3r,5S,6r)-3-(5-chloro-1H-indazol-7-yl)-3-hydroxybicyclo[3.1.0]hexan-6-yl)cyclopropanesulfonamide] gave an IC50 [1] of 1000 to 5000 nM and an IC50 [2] of 1000 to 5000 nM.

Molecule `CS(=O)(=O)N1C[C@@H]2C[C@@](O)(c3cc(Cl)cc4cn[nH]c34)C[C@@H]2C1` [Example 96, (3aR,5r,6aS)-5-(5-chloro-1H-indazol-7-yl)-2-(methylsulfonyl)octahydrocyclopenta[c]pyrrol-5-ol] has an IC50 [1] of 1000 to 5000 nM and an IC50 [2] of 1000 to 5000 nM.

Molecule `CS(=O)(=O)N[C@H]1[C@@H]2C[C@@](O)(c3cc(Cl)cc4cn[nH]c34)C[C@@H]21` [Example 109, N-((1R,3r,5S,6r)-3-(5-chloro-1H-indazol-7-yl)-3-hydroxybicyclo[3.1.0]hexan-6-yl)methanesulfonamide] has an IC50 [1] of 1000 to 5000 nM and an IC50 [2] of 500 to 1000 nM.

Work on `CC(=O)N[C@H]1[C@@H]2C[C@@](O)(c3cc(C(F)(F)F)cc4[nH]ncc34)C[C@@H]21` [Example 164, N-((1R,3r,5S,6r)-3-hydroxy-3-(6-(trifluoromethyl)-1H-indazol-4-yl)bicyclo[3.1.0]hexan-6-yl)acetamide] yielded an IC50 [1] of over 5000 nM and an IC50 [2] of at most 500 nM.

`O=C(N[C@H]1[C@@H]2C[C@@](O)(c3cc(Cl)cc4[nH]ncc34)C[C@@H]21)c1ccc(F)c(Br)c1` [Example 176, 3-bromo-N-((1R,3r,5S,6r)-3-(6-chloro-1H-indazol-4-yl)-3-hydroxybicyclo[3.1.0]hexan-6-yl)-4-fluorobenzamide] gave an IC50 [1] of at most 500 nM and an IC50 [2] of at most 500 nM.

For `O=S(=O)(N[C@H]1[C@@H]2C[C@@](O)(c3cc(Cl)cc4[nH]ncc34)C[C@@H]21)C1CCOCC1` [Example 94, N-((1R,3r,5S,6r)-3-(6-chloro-1H-indazol-4-yl)-3-hydroxybicyclo[3.1.0]hexan-6-yl)tetrahydro-2H-pyran-4-sulfonamide], the IC50 [2] was at most 500 nM.

`O=C(N[C@H]1[C@@H]2C[C@@](O)(c3cc(Cl)cc4[nH]ncc34)C[C@@H]21)C1CCCCC1` [Example 85, N-((1R,3r,5S,6r)-3-(6-chloro-1H-indazol-4-yl)-3-hydroxybicyclo[3.1.0]hexan-6-yl)cyclohexanecarboxamide] was tested, and the IC50 [2] was at most 500 nM.

`CC(=O)N1C[C@H]2C[C@@H](c3cc(C(F)(F)F)cn4cncc34)C[C@H]2C1` [Example 4, 1-((3aR,5r,6aS)-5-(6-(trifluoromethyl)imidazo[1,5-a]pyridin-8-yl)hexahydrocyclopenta[c]pyrrol-2(1H)-yl)ethanone] was tested, and the IC50 [2] was over 5000 nM.

For `CC(C)S(=O)(=O)N[C@H]1[C@@H]2C[C@@](O)(c3cc(Cl)cc4[nH]ncc34)C[C@@H]21` [Example 77, N-((1R,3r,5S,6r)-3-(6-chloro-1H-indazol-4-yl)-3-hydroxybicyclo[3.1.0]hexan-6-yl)propane-2-sulfonamide], the IC50 [2] was at most 500 nM.
